Reference: patent US6620828B2, “Thiazole compounds and pharmaceutical compositions for inhibiting protein kinases and methods for their use” (Agouron Pharmaceuticals, Inc., priority 1999, dated 2003)

tested on: human umbilical vein endothelial cells (HUVEC); experiment: HUVEC proliferation assay; type: cell-based; conditions: Homo sapiens, HUVEC, Table I screening results; 150 nM; crude combinatorial amide library
Summary of the method: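 Exponentially growing HUVEC were serum-starved 24 h (F12K + 1% FBS), pre-treated 1 h with compound (0.1% DMSO final), then stimulated with 6 ng/ml VEGF. Proliferation was read 72 h later by MTT reduction (A595). IC50 came from seven 0.5-log concentrations in triplicate; screens gave % inhibition relative to VEGF-only and starved wells.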

Row | SMILES | inhibition at 0.15 µM [%]
1 | COc1cc(Nc2nc(N)c(-c3nc(-c4cccc(NC(=O)/C=C/c5ccccc5)c4)cs3)s2)cc(OC)c1OC | 36
2 | COc1cccc(CC(=O)Nc2cccc(-c3csc(-c4sc(Nc5cc(OC)c(OC)c(OC)c5)nc4N)n3)c2)c1 | 12
3 | COc1cc(Nc2nc(N)c(-c3nc(-c4cccc(NC(=O)CC5CCCCC5)c4)cs3)s2)cc(OC)c1OC | 3
4 | COc1cc(Nc2nc(N)c(-c3nc(-c4cccc(NC(=O)c5ccc6[nH]nnc6c5)c4)cs3)s2)cc(OC)c1OC | -8
5 | COc1cc(Nc2nc(N)c(-c3nc(-c4cccc(NC(=O)Cc5ccccc5Cl)c4)cs3)s2)cc(OC)c1OC | 34
6 | COc1cc(Nc2nc(N)c(-c3nc(-c4cccc(NC(=O)c5ccc(N6N=C(C)CC6=O)cc5)c4)cs3)s2)cc(OC)c1OC | 0

same assay, conditions: Homo sapiens, HUVEC, Table II screening results; 1 nM; crude combinatorial amide library

Row | SMILES | inhibition at 0.001 µM [%]
7 | CNC(=O)Nc1nc(N)c(-c2nc(-c3cccc(NC(=O)C(O)c4ccccc4)c3)cs2)s1 (centres unmarked) | -14
8 | CNC(=O)Nc1nc(N)c(-c2nc(-c3cccc(NC(=O)c4cc(=O)cco4)c3)cs2)s1 | 47
9 | CNC(=O)Nc1nc(N)c(-c2nc(-c3cccc(NC(=O)c4ccc(=O)oc4)c3)cs2)s1 | -4
10 | CNC(=O)Nc1nc(N)c(-c2nc(-c3cccc(NC(=O)C4CC5C=CCC(C5)C4)c3)cs2)s1 (centres unmarked) | 1
11 | CNC(=O)Nc1nc(N)c(-c2nc(-c3cccc(NC(=O)C4CNC(=O)N4)c3)cs2)s1 (centres unmarked) | 11
12 | CNC(=O)Nc1nc(N)c(-c2nc(-c3cccc(NC(=O)Cc4cc(F)cc(F)c4)c3)cs2)s1 | -5
13 | CNC(=O)Nc1nc(N)c(-c2nc(-c3cccc(NC(=O)/C=C/c4ccccc4OC)c3)cs2)s1 | -34
14 | CNC(=O)Nc1nc(N)c(-c2nc(-c3cccc(NC(=O)c4ccc(C(C)=O)s4)c3)cs2)s1 | 49
15 | C/C=C(\C)C(=O)Nc1cccc(-c2csc(-c3sc(NC(=O)NC)nc3N)n2)c1 | 5
16 | CNC(=O)Nc1nc(N)c(-c2nc(-c3cccc(NC(=O)C4C(C)(C)C4(C)C)c3)cs2)s1 | 11
17 | CNC(=O)Nc1nc(N)c(-c2nc(-c3cccc(NC(=O)C4CCOC4)c3)cs2)s1 (centres unmarked) | -5
18 | CNC(=O)Nc1nc(N)c(-c2nc(-c3cccc(NC(=O)Cc4cc(F)ccc4F)c3)cs2)s1 | -1
19 | CNC(=O)Nc1nc(N)c(-c2nc(-c3cccc(NC(=O)C4CCSCN4C)c3)cs2)s1 (centres unmarked) | 1

same assay, conditions: Homo sapiens, HUVEC, Table II screening results; 10 nM; crude combinatorial amide library; read-out: % inhibition @ 10 nM

Row | SMILES | inhibition at 0.01 µM [%]
20 | CNC(=O)Nc1nc(N)c(-c2nc(-c3cccc(NC(=O)C(O)c4ccccc4)c3)cs2)s1 (centres unmarked) | -11
21 | CNC(=O)Nc1nc(N)c(-c2nc(-c3cccc(NC(=O)c4cc(=O)cco4)c3)cs2)s1 | 27
22 | CNC(=O)Nc1nc(N)c(-c2nc(-c3cccc(NC(=O)c4ccc(=O)oc4)c3)cs2)s1 | 30
23 | CNC(=O)Nc1nc(N)c(-c2nc(-c3cccc(NC(=O)C4CC5C=CCC(C5)C4)c3)cs2)s1 (centres unmarked) | 55
24 | CNC(=O)Nc1nc(N)c(-c2nc(-c3cccc(NC(=O)C4CNC(=O)N4)c3)cs2)s1 (centres unmarked) | 18
25 | CNC(=O)Nc1nc(N)c(-c2nc(-c3cccc(NC(=O)Cc4cc(F)cc(F)c4)c3)cs2)s1 | -10
26 | CNC(=O)Nc1nc(N)c(-c2nc(-c3cccc(NC(=O)/C=C/c4ccccc4OC)c3)cs2)s1 | 46
27 | CNC(=O)Nc1nc(N)c(-c2nc(-c3cccc(NC(=O)c4ccc(C(C)=O)s4)c3)cs2)s1 | 97
28 | C/C=C(\C)C(=O)Nc1cccc(-c2csc(-c3sc(NC(=O)NC)nc3N)n2)c1 | 17
29 | CNC(=O)Nc1nc(N)c(-c2nc(-c3cccc(NC(=O)C4C(C)(C)C4(C)C)c3)cs2)s1 | 21
30 | CNC(=O)Nc1nc(N)c(-c2nc(-c3cccc(NC(=O)C4CCOC4)c3)cs2)s1 (centres unmarked) | -8
31 | CNC(=O)Nc1nc(N)c(-c2nc(-c3cccc(NC(=O)Cc4cc(F)ccc4F)c3)cs2)s1 | 4
32 | CNC(=O)Nc1nc(N)c(-c2nc(-c3cccc(NC(=O)C4CCSCN4C)c3)cs2)s1 (centres unmarked) | 62

same assay, conditions: Homo sapiens, HUVEC, table following Table II (untitled); 1 nM; crude combinatorial library

Row | SMILES | inhibition at 0.001 µM [%]
33 | COc1cc(Nc2nc(N)c(-c3nc(-c4cc(NC(=O)Cc5c(F)cccc5F)ccc4C)no3)s2)cc(OC)c1OC | -23
34 | COc1cc(Nc2nc(N)c(-c3nc(-c4cc(NC(=O)C5C(C=C(C)C)C5(C)C)ccc4C)no3)s2)cc(OC)c1OC (centres unmarked) | 8
35 | COc1cc(Nc2nc(N)c(-c3nc(-c4cc(NC(=O)CSC(=S)N(C)C)ccc4C)no3)s2)cc(OC)c1OC | 6
36 | C=CCC(=O)Nc1ccc(C)c(-c2noc(-c3sc(Nc4cc(OC)c(OC)c(OC)c4)nc3N)n2)c1 | 35
37 | CCCN(CCC)CC(=O)Nc1ccc(C)c(-c2noc(-c3sc(Nc4cc(OC)c(OC)c(OC)c4)nc3N)n2)c1 | 6
38 | COc1cc(Nc2nc(N)c(-c3nc(-c4cc(NC(=O)C5CCCO5)ccc4C)no3)s2)cc(OC)c1OC (centres unmarked) | 7

same assay, conditions: Homo sapiens, HUVEC, table following Table II (untitled); 10 nM; crude combinatorial library; read-out: % inhibition @ 10 nM

Row | SMILES | inhibition at 0.01 µM [%]
39 | COc1cc(Nc2nc(N)c(-c3nc(-c4cc(NC(=O)Cc5c(F)cccc5F)ccc4C)no3)s2)cc(OC)c1OC | 42
40 | COc1cc(Nc2nc(N)c(-c3nc(-c4cc(NC(=O)C5C(C=C(C)C)C5(C)C)ccc4C)no3)s2)cc(OC)c1OC (centres unmarked) | -11
41 | COc1cc(Nc2nc(N)c(-c3nc(-c4cc(NC(=O)CSC(=S)N(C)C)ccc4C)no3)s2)cc(OC)c1OC | -7
42 | C=CCC(=O)Nc1ccc(C)c(-c2noc(-c3sc(Nc4cc(OC)c(OC)c(OC)c4)nc3N)n2)c1 | 72
43 | CCCN(CCC)CC(=O)Nc1ccc(C)c(-c2noc(-c3sc(Nc4cc(OC)c(OC)c(OC)c4)nc3N)n2)c1 | 0
44 | COc1cc(Nc2nc(N)c(-c3nc(-c4cc(NC(=O)C5CCCO5)ccc4C)no3)s2)cc(OC)c1OC (centres unmarked) | 21

same assay, conditions: Table I screening results; 150 nM; crude combinatorial amide library

Row | SMILES | % inhibition @ 150 nM [%]
45 | [CH2-][N+](=O)c1cccc(/C=C/C(=O)Nc2cccc(-c3csc(-c4sc(Nc5cc(OC)c(OC)c(OC)c5)nc4N)n3)c2)c1 | 0
46 | COc1ccccc1CCC(=O)Nc1cccc(-c2csc(-c3sc(Nc4cc(OC)c(OC)c(OC)c4)nc3N)n2)c1 | 0
47 | COc1cc(Nc2nc(N)c(-c3nc(-c4cccc(NC(=O)/C=C/c5ccc6c(c5)OCO6)c4)cs3)s2)cc(OC)c1OC | 0
48 | COc1cc(Nc2nc(N)c(-c3nc(-c4cccc(NC(=O)Cc5ccccc5C)c4)cs3)s2)cc(OC)c1OC | 0
49 | COc1cc(Nc2nc(N)c(-c3nc(-c4cccc(NC(=O)C(C)c5ccc(CC(C)C)cc5)c4)cs3)s2)cc(OC)c1OC (centres unmarked) | 0
50 | COc1cc(Nc2nc(N)c(-c3nc(-c4cccc(NC(=O)Cn5cnc6c5c(=O)n(C)c(=O)n6C)c4)cs3)s2)cc(OC)c1OC | 0
